Literature values in patent publication US20200214978A1, “Functional chewing gum comprising phytonutrients and adaptogenic herbs” (BrilliantIQ AB, priority 2017, published 2020).

How the values were obtained:
[1] = oral administration
[2] = supplementation, group of healthy adults

In the case of `C[N+](C)(C)CCOP(=O)([O-])OC[C@H](O)CO` [alpha-GPC, L-Alpha glycerolphosphorylcholine], the beta waves [1] is given as “significant increase” and the delta waves [1] is given as “significant decrease”.

In the case of Phosphatidylserine, the “increase the speed of calculations done in short-term memory” value [2] is given as 20%.
